± gives the expanded uncertainty stated by the source.
Conditions: 101.33 kPa, Crystal, Vacuum adiabatic calorimetry

SMILES: Cc1cc2nc3c(=O)[nH]c(=O)nc-3n(C[C@H](O)[C@H](O)[C@H](O)CO)c2cc1C [riboflavin]
- molar entropy (1 K): 0.0261 ± 0.015 J/K/mol
- molar entropy (2 K): 0.105 ± 0.017 J/K/mol
- molar entropy (3 K): 0.235 ± 0.019 J/K/mol
- molar entropy (4 K): 0.418 ± 0.021 J/K/mol
- molar entropy (5 K): 0.653 ± 0.024 J/K/mol
- molar entropy (6 K): 0.941 ± 0.028 J/K/mol
- molar entropy (7 K): 1.28 ± 0.032 J/K/mol
- molar entropy (8 K): 1.66 ± 0.036 J/K/mol
- molar entropy (9 K): 2.1 ± 0.041 J/K/mol
- molar entropy (10 K): 2.58 ± 0.046 J/K/mol
- molar entropy (15 K): 5.898 ± 0.076 J/K/mol
- molar entropy (20 K): 10.48 ± 0.11 J/K/mol
- molar entropy (25 K): 15.97 ± 0.13 J/K/mol
- molar entropy (30 K): 22.23 ± 0.13 J/K/mol
- molar entropy (35 K): 29.06 ± 0.15 J/K/mol
- molar entropy (40 K): 36.3 ± 0.17 J/K/mol
- molar entropy (45 K): 43.84 ± 0.19 J/K/mol
- molar entropy (50 K): 51.59 ± 0.22 J/K/mol
- molar entropy (60 K): 67.55 ± 0.26 J/K/mol
- molar entropy (70 K): 83.87 ± 0.31 J/K/mol
- molar entropy (80 K): 100.3 ± 0.4 J/K/mol
- molar entropy (90 K): 116.8 ± 0.5 J/K/mol
- molar entropy (100 K): 133.4 ± 0.5 J/K/mol
- molar entropy (110 K): 149.9 ± 0.5 J/K/mol
- molar entropy (120 K): 166.2 ± 0.6 J/K/mol
- molar entropy (130 K): 182.4 ± 0.6 J/K/mol
- molar entropy (140 K): 198.4 ± 0.6 J/K/mol
- molar entropy (150 K): 214.3 ± 0.6 J/K/mol
- molar entropy (160 K): 230.1 ± 0.6 J/K/mol
- molar entropy (170 K): 245.7 ± 0.7 J/K/mol
- molar entropy (180 K): 261.3 ± 0.7 J/K/mol
- molar entropy (190 K): 276.8 ± 0.7 J/K/mol
- molar entropy (200 K): 292.2 ± 0.7 J/K/mol
- molar entropy (210 K): 307.5 ± 0.8 J/K/mol
- molar entropy (220 K): 322.7 ± 0.8 J/K/mol
- molar entropy (230 K): 337.9 ± 0.8 J/K/mol
- molar entropy (240 K): 353 ± 0.8 J/K/mol
- molar entropy (250 K): 368 ± 0.9 J/K/mol
- molar entropy (260 K): 383 ± 0.9 J/K/mol
- molar entropy (270 K): 397.9 ± 0.9 J/K/mol
- molar entropy (273.15 K): 402.6 ± 0.9 J/K/mol
- molar entropy (280 K): 412.8 ± 0.9 J/K/mol
- molar entropy (290 K): 427.7 ± 0.9 J/K/mol
- molar entropy (298.15 K): 439.8 ± 1 J/K/mol
- molar entropy (310 K): 457.3 ± 1 J/K/mol
- molar entropy (320 K): 472.1 ± 1 J/K/mol
- molar entropy (322 K): 475 ± 1 J/K/mol
